Assay results as given in ChEMBL document CHEMBL1201862, “PubChem BioAssay data set” (2004).
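Each compound was tested at five concentrations against cells in 96-well plates for 48 hours. The concentration for 50% growth inhibition is given as GI50.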 Active and inactive are the calls of the source. No stated cut-off is given here; in the data, active = GI50 up to about 1.1 µM and inactive = higher.

Experiments:
Assay in all cases: growth of human tumour cells (NCI), 48 h
SF-268 = test system: SF-268
M19-MEL = test system: M19-MEL
SK-MEL-2 = test system: SK-MEL-2
NCI-H226 = test system: NCI-H226
NCI-H460 = test system: NCI-H460
COLO 205 = test system: COLO 205
NCI-H522 = test system: NCI-H522
CAKI-1 = test system: CAKI-1
UACC-257 = test system: UACC-257
SK-OV-3 = test system: SK-OV-3
SN12C = test system: SN12C
SW-620 = test system: SW-620
MCF7 = test system: MCF7
IGROV-1 = test system: IGROV-1
OVCAR-5 = test system: OVCAR-5
RXF 393 = test system: RXF 393
HL-60 = test system: HL-60
CCRF-CEM = test system: CCRF-CEM
A498 = test system: A498
SR = test system: SR

Compound | GI50 (SF-268) | GI50 (M19-MEL) | GI50 (SK-MEL-2) | GI50 (NCI-H226) | GI50 (NCI-H460) | GI50 (COLO 205) | GI50 (NCI-H522) | GI50 (CAKI-1) | GI50 (UACC-257) | GI50 (SK-OV-3) | GI50 (SN12C) | GI50 (SW-620) | GI50 (MCF7) | GI50 (IGROV-1) | GI50 (OVCAR-5) | GI50 (RXF 393) | GI50 (HL-60) | GI50 (CCRF-CEM) | GI50 (A498) | GI50 (SR)
COc1ccc(-c2nc3ccc([N+](=O)[O-])cc3c(=O)[nH]2)cc1 | 20.4 µM (inactive) | > 100 µM (inactive) | 30.3 µM (inactive) | 23.2 µM (inactive) | > 80 µM (inactive) | > 100 µM (inactive) | 26.9 µM (inactive) | 28.8 µM (inactive) | > 96.2 µM (inactive) | 13.6 µM (inactive) | 66.4 µM (inactive) | > 100 µM (inactive) | 46.5 µM (inactive) | 25.1 µM (inactive) | > 100 µM (inactive) | 26.4 µM (inactive) | > 100 µM (inactive) | > 100 µM (inactive) | 29.3 µM (inactive) | 
CCOC(=O)N1C=NC23C(c4ccccc4)C(c4ccccc4)C12C(=O)N(C)C(=O)N3C (stereo not given) | > 100 µM (inactive) | > 100 µM (inactive) | > 100 µM (inactive) |  | > 100 µM (inactive) | > 100 µM (inactive) | > 100 µM (inactive) | > 100 µM (inactive) | > 100 µM (inactive) | > 100 µM (inactive) | > 100 µM (inactive) | > 100 µM (inactive) |  | > 100 µM (inactive) | > 100 µM (inactive) | 16.3 µM (inactive) | 56.1 µM (inactive) | > 100 µM (inactive) | > 100 µM (inactive) | > 100 µM (inactive)
O=C1CCC23CC(C=CC=C12)n1c(=O)n(-c2ccccc2)c(=O)n13 (stereo not given) | > 73.6 µM (inactive) | > 100 µM (inactive) | > 100 µM (inactive) | > 63.4 µM (inactive) | > 100 µM (inactive) | > 100 µM (inactive) | > 100 µM (inactive) | > 50.6 µM (inactive) | > 100 µM (inactive) | > 100 µM (inactive) | > 100 µM (inactive) | 43.2 µM (inactive) | 10.9 µM (inactive) | > 100 µM (inactive) | > 100 µM (inactive) | 99.3 µM (inactive) | 31 µM (inactive) | 42.4 µM (inactive) | > 100 µM (inactive) | 
CCCCNC(=O)N/C=C1\C(=O)Oc2ccccc2C1=O | 34.4 µM (inactive) | 54.5 µM (inactive) | 20.1 µM (inactive) | 32.7 µM (inactive) | > 100 µM (inactive) | > 100 µM (inactive) |  |  | 55.7 µM (inactive) |  | 29.5 µM (inactive) | 58.7 µM (inactive) |  | 37.1 µM (inactive) | 68.5 µM (inactive) | 15 µM (inactive) | 22.1 µM (inactive) |  |  | 57.5 µM (inactive)
C[C@@H]1CC[C@H]2[C@H]1[C@H]1[C@@H](CC[C@]2(C)N=C=S)C1(C)C |  |  | 22.8 µM (inactive) | 17.7 µM (inactive) | 20.4 µM (inactive) | 18.5 µM (inactive) |  | 37.8 µM (inactive) | 25.8 µM (inactive) | 49.3 µM (inactive) | 19.6 µM (inactive) | 15.1 µM (inactive) | 17.5 µM (inactive) | 45 µM (inactive) | 28.3 µM (inactive) | 15.5 µM (inactive) | 19.1 µM (inactive) | 13.3 µM (inactive) |  | 22.1 µM (inactive)
SC1=Nc2ccccc2-c2nc(-c3ccccc3)cc(-c3ccc(Br)cc3)c2C1 | 2.1 µM (inactive) |  | 6.47 µM (inactive) | 3.18 µM (inactive) | 0.859 µM (active) | 2.66 µM (inactive) | 1.68 µM (inactive) | 1.5 µM (inactive) | 3.15 µM (inactive) | 0.897 µM (active) | 0.791 µM (active) | 2.4 µM (inactive) | 4.59 µM (inactive) | 1.22 µM (inactive) | 2.81 µM (inactive) | 1.7 µM (inactive) | 18.4 µM (inactive) | 1.88 µM (inactive) | 1.01 µM (active) | 
Cn1c(=O)c(-c2ccccc2)c(N=[N+]=[N-])c2ccccc21 | 39.5 µM (inactive) |  |  | 67 µM (inactive) | 39.4 µM (inactive) | 44 µM (inactive) | 26 µM (inactive) | 29.4 µM (inactive) | > 100 µM (inactive) | > 100 µM (inactive) | 95.9 µM (inactive) | 48.3 µM (inactive) | 54.3 µM (inactive) | > 100 µM (inactive) | > 100 µM (inactive) | 80.2 µM (inactive) |  | 30.8 µM (inactive) | 42.6 µM (inactive) | 25.3 µM (inactive)
Cc1cc2c(cc1C)[n+]([O-])c(C#N)c(Cl)[n+]2[O-] | 18.1 µM (inactive) |  | 17.4 µM (inactive) | 21.7 µM (inactive) | 11.7 µM (inactive) | 6.92 µM (inactive) | 11 µM (inactive) | 6.46 µM (inactive) | 13.8 µM (inactive) | 16.4 µM (inactive) | 13.6 µM (inactive) | 11.7 µM (inactive) | 12.9 µM (inactive) | 10.6 µM (inactive) | 12.7 µM (inactive) | 13.2 µM (inactive) | 7.78 µM (inactive) | 4.92 µM (inactive) | 19.7 µM (inactive) | 3.82 µM (inactive)
CC1CC[P+](c2ccccc2)(c2ccccc2)c2c1ccc1ccccc21 (stereo not given) | 4.35 µM (inactive) | 1.69 µM (inactive) | 1.63 µM (inactive) |  | 2 µM (inactive) |  | 0.946 µM (active) | 6.75 µM (inactive) | 0.385 µM (active) |  | 2.49 µM (inactive) |  | 2.26 µM (inactive) |  | 5.26 µM (inactive) | 9.08 µM (inactive) | 1.28 µM (inactive) | 3.78 µM (inactive) |  | 
N#C[C@H](OC1OC(COC2OC(CO)C(O)C(O)C2O)C(O)C(O)C1O)c1ccccc1 (stereo not given in full) | > 250 µM (inactive) | > 250 µM (inactive) | > 250 µM (inactive) | 191 µM (inactive) | > 250 µM (inactive) | > 250 µM (inactive) | > 200 µM (inactive) | > 250 µM (inactive) | 234 µM (inactive) | > 250 µM (inactive) | > 250 µM (inactive) | > 250 µM (inactive) | > 250 µM (inactive) | > 250 µM (inactive) | > 250 µM (inactive) | > 250 µM (inactive) | 158 µM (inactive) | > 250 µM (inactive) | > 11.6 µM (inactive) | 
N#Cc1ccc(C2Oc3ccc(Cl)cc3C=C2[N+](=O)[O-])cc1 (stereo not given) | 1.91 µM (inactive) |  | 1.74 µM (inactive) | 10.6 µM (inactive) | 2.22 µM (inactive) | 0.74 µM (active) | 1.34 µM (inactive) | 1.52 µM (inactive) | 2.4 µM (inactive) | 2.27 µM (inactive) | 1.31 µM (inactive) | 0.845 µM (active) | 1.4 µM (inactive) | 1.61 µM (inactive) | 2.09 µM (inactive) | 4.99 µM (inactive) | 0.841 µM (active) | 0.219 µM (active) | 2.38 µM (inactive) | 0.157 µM (active)
CCCCCCCCCCCCCC(=O)OC1C(O)C(CO)OC(OC)C1NC(=O)N(CCCl)N=O (stereo not given) | 6.27 µM (inactive) | > 100 µM (inactive) | > 100 µM (inactive) | > 100 µM (inactive) | 18.7 µM (inactive) | > 100 µM (inactive) | 72.9 µM (inactive) | > 100 µM (inactive) | 28.8 µM (inactive) |  | 37 µM (inactive) | > 100 µM (inactive) |  | > 100 µM (inactive) | > 100 µM (inactive) | 47 µM (inactive) |  |  |  | 23.2 µM (inactive)
Cc1ccc(NC(=O)OCC(COc2ccc(Cl)cc2)OC(=O)Nc2ccc(C)cc2)cc1 (stereo not given) | 22.5 µM (inactive) | 22.4 µM (inactive) | 15 µM (inactive) | 16.5 µM (inactive) | 25.9 µM (inactive) | 39.6 µM (inactive) | 29.8 µM (inactive) | 15.7 µM (inactive) | 21.9 µM (inactive) | 58.6 µM (inactive) | 20.4 µM (inactive) | 17.1 µM (inactive) |  | 9.79 µM (inactive) | 27.9 µM (inactive) | 12.9 µM (inactive) | 0.938 µM (active) | 9.93 µM (inactive) | 13.2 µM (inactive) | > 100 µM (inactive)
